# Test results as given in patent publication US12240844B2 (Voronoi, Inc., priority 2019, dated 2025).
# pIC50: −log10 of the molar value.
# Legend:
# Type in all cases: biochemical
# [1] = molecular target: T1, human GST-DYRK1A (full length) (Homo sapiens, UniProt Q13627); experiment: GST-DYRK1A enzyme inhibition, ADP-Glo kinase assay; details: read-out: DYRK1 IC50
# T1 construct: purified human GST-DYRK1A (full length, Thermo scientifics) enzyme; GST; purchased Thermo scientifics
# Protocol: (§1) In order to evaluate the inhibitory activity of the compounds according to the present invention on LRRK2, LRRK2 (G2019S), DYRK1, CLK1 and TTK kinases, the following experiment was performed.
# (§2) Example compounds were reacted with the purified human GST-DYRK1A (full length, Thermo scientifics) enzyme to evaluate the enzyme inhibitory ability as follows. As the reaction buffer, the composition of 40 mM Tris-HCl pH 7.4, 20 mM MgCl2, 0.5 mg/mL BSA, and 50 uM DTT was used, and the reaction of all test materials was performed on the reaction buffer. During the test, the human GST-DYRK1A (full length, 10 ng) enzyme, the purified ATP (10 uM), and a specific substrate solution were reacted at 25° C. for 1 hour, and then the enzyme activity was identified using the in vitro ADP-Glo™ kinase assay (promega). Luminescence was measured by reacting the enzyme activity reaction solution, an ADP-Glo reaction solution and the enzyme potency detection solution in a ratio of 2:2:1. The degree of inhibition of enzyme activity according to the treatment concentrations of the respective compounds was calculated based on the fluorescence of the enzyme activity of a solvent control group that was not treated with the compound, where the concentration of each compound to inhibit enzyme activity inhibition by 50% was determined as an IC50 (nM) value. The IC50 of each compound was determined in triplicate data sets and obtained using Prism (version 7.01, GraphPad) software.
# (§3) In the table below, the following designations were used for the evaluation of enzyme inhibitory ability.
# human GST-CLK1 (129-end) = molecular target: T2, human GST-CLK1 (129-end) (Homo sapiens, UniProt P49759); experiment: GST-CLK1 enzyme inhibition, ADP-Glo kinase assay; details: ATP 10 uM
# T2 construct: purified human GST-CLK1 (129-end, Signalchem) enzyme; GST; purchased Signalchem
# Protocol: as §1
# as §2, with “GST-CLK1 (129-end, Signalchem)” for “GST-DYRK1A (full length, Thermo scientifics)”, “GST-CLK1 (129-end, 3” for “GST-DYRK1A (full length, 10”
# as §3
# LRRK2 (G2019S) = LRRK2 (G2019S) (Homo sapiens, UniProt Q5S007, G2019S); experiment: LRRK2 G2019S enzyme inhibition, ADP-Glo kinase assay; design: purchased SignalChem L10-12GG
# Protocol: as §1
# Example compounds were reacted with the purified human LRRK2 G2019S (L10-12GG, SignalChem) enzyme to evaluate the enzyme inhibitory ability as follows. The reaction buffer was used as the composition of 40 mM Tris-HCl pH7.4, 20 mM MgCl2, 0.5 mg/ml BSA and 50 μM DTT, and the reaction of all test materials was performed on the reaction buffer. The compound was diluted with 10 mM DMSO stock in 12 steps by a serial dilution method, and the enzyme activity was measured at the final compound concentrations of 50, 10, 2, 0.4, 0.08, 0.016, 0.0032, 0.00064, 0.000128, 0.0000256, 0.00000512 and 0.000001024 μM. In the test, the human LRRK2 G2019S (16 ng) enzyme was reacted with the purified ATP (25 μM) and an enzyme substrate (0.2 μg) at 25° C. for 2 hours, and then the enzyme activity was identified using the in vitro ADP-Glo™ kinase assay (promega). The enzyme activity reaction liquid, an ADP-Glo reaction liquid and an enzyme potency detection solution were reacted in a ratio of 2:2:1, and the degree of inhibition of enzyme activity was measured by Luminescence. The degree of inhibition of enzyme activity according to the treatment concentrations of the respective compounds was calculated based on the fluorescence of the enzyme activity of a solvent control group that was not treated with the compound, where the concentration of each compound to inhibit enzyme activity inhibition by 50% was determined as an IC50 (nM) value and obtained using Prism (Version 5.01, GraphPad) software.
# as §3
# Sequence of LRRK2 (G2019S) (Q5S007 970-2527 G2019S limits assumed): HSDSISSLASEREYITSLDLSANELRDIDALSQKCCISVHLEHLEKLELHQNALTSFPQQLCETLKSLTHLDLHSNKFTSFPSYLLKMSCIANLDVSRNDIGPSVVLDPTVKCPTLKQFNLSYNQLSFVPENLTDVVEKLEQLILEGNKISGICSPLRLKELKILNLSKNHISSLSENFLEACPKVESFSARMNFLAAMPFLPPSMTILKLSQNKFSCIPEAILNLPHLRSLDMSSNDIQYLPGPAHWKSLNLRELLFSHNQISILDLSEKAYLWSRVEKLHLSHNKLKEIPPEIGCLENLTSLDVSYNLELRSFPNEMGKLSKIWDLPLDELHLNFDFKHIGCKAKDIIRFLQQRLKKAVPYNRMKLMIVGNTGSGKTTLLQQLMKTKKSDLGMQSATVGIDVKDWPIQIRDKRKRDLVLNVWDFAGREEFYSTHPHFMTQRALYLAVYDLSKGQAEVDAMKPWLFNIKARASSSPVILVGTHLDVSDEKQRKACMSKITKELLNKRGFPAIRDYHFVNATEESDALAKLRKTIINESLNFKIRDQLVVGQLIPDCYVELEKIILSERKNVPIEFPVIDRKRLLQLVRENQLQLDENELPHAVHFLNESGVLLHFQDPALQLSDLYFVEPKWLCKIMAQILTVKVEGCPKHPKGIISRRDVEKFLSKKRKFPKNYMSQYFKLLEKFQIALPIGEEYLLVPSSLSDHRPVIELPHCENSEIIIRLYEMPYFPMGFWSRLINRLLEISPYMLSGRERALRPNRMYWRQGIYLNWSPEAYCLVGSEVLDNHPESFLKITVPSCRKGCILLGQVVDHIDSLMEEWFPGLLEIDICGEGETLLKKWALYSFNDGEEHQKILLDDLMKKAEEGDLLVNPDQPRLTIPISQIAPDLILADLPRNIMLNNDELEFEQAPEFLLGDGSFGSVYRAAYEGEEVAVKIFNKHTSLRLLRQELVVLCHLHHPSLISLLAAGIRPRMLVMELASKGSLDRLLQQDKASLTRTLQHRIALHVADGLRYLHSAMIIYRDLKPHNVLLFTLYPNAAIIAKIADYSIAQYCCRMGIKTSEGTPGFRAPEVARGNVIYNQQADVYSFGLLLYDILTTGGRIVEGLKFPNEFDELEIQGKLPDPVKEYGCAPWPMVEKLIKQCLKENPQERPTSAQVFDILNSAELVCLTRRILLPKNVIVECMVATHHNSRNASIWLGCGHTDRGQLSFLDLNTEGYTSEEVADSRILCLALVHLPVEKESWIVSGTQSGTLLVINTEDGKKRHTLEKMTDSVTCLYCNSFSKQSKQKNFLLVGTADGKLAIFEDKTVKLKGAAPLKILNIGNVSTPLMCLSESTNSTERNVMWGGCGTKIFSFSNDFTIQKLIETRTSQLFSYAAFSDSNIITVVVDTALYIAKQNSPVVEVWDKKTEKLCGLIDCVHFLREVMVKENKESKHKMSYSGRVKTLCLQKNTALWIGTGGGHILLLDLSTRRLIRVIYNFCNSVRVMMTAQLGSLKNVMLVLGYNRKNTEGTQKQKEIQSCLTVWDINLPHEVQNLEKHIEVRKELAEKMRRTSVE
# T2 sequence (P49759 129-484 limits assumed): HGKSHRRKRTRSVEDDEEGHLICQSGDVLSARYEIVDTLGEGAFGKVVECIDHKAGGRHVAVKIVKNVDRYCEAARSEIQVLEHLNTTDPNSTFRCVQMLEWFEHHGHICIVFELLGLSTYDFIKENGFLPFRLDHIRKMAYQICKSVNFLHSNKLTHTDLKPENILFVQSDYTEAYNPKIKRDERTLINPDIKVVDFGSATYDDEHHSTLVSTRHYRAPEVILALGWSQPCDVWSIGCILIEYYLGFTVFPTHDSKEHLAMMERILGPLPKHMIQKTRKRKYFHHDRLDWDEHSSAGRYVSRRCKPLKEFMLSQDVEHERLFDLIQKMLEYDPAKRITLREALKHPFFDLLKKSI
pIC50 [1],pIC50 (human GST-CLK1 (129-end)),pIC50 (LRRK2 (G2019S)),Structure (SMILES)
6.00 to 6.52,6.00 to 6.52,> 7.00,"COc1cc(S(=O)(=O)N2CCC(N3CCOCC3)CC2)ccc1Nc1cc(NC2CC2)c2cc[nH]c2n1 [Example 22, N^4-cyclopropyl-N^6-(2-methoxy-4-((4-morpholinopiperidin-1-yl)sulfonyl)phenyl)-1H-pyrrolo[2,3-b]pyridine-4,6-diamine]"
6.00 to 6.52,6.00 to 6.52,6.00 to 6.52,"COc1cc(S(=O)(=O)N2CCC(N3CCOCC3)CC2)ccc1Nc1cc(NC2CCCCC2)c2cc[nH]c2n1 [Example 23, N^4-cyclohexyl-N^6-(2-methoxy-4-((4-morpholinopiperidin-1-yl)sulfonyl)phenyl)-1H-pyrrolo[2,3-b]pyridine-4,6-diamine]"
6.00 to 6.52,6.00 to 6.52,> 7.00,"COc1cc(S(=O)(=O)N2CCC(N3CCOCC3)CC2)ccc1Nc1cc(NCCS(C)(=O)=O)c2cc[nH]c2n1 [Example 24, N^6-(2-methoxy-4-((4-morpholinopiperidin-1-yl)sulfonyl)phenyl)-N^4-(2-(methylsulfonyl)ethyl)-1H-pyrrolo[2,3-b]pyridine-4,6-diamine]"
6.00 to 6.52,6.00 to 6.52,6.00 to 6.52,"COc1cc(S(C)(=O)=O)ccc1Nc1cc(NC2CCCCC2)c2cc[nH]c2n1 [Example 30, N^4-cyclohexyl-N^6-(2-methoxy-4-(methylsulfonyl)phenyl)-1H-pyrrolo[2,3-b]pyridine-4,6-diamine]"
6.00 to 6.52,6.00 to 6.52,6.00 to 6.52,"COc1cc(S(C)(=O)=O)ccc1Nc1cc(NCCS(C)(=O)=O)c2cc[nH]c2n1 [Example 31, N^6-(2-methoxy-4-(methylsulfonyl)phenyl)-N^4-(2-(methylsulfonyl)ethyl)-1H-pyrrolo[2,3-b]pyridine-4,6-diamine]"
6.00 to 6.52,6.00 to 6.52,> 7.00,"CNc1cc(Nc2ccc(C(=O)N3CCOCC3)c3c2OCCO3)nc2[nH]cc(Cl)c12 [Example 56, (8-((3-chloro-4-(methylamino)-1H-pyrrolo[2,3-b]pyridin-6-yl)amino)-2,3-dihydrobenzo[b] [1,4]dioxin-5-yl)(morpholino) methanone 2,2,2-trifluoroacetate]"
6.00 to 6.52,6.00 to 6.52,> 7.00,"CCNc1cc(Nc2ccc(C(=O)N3CCOCC3)c3c2OCCO3)nc2[nH]cc(Cl)c12 [Example 57, (8-((3-chloro-4-(ethylamino)-1H-pyrrolo[2,3-b]pyridin-6-yl)amino)-2,3-dihydrobenzo[b] [1,4]dioxin-5-yl)(morpholino) methanone]"
6.00 to 6.52,6.00 to 6.52,> 7.00,"CCCNc1cc(Nc2ccc(C(=O)N3CCOCC3)c3c2OCCO3)nc2[nH]cc(Cl)c12 [Example 58, (8-((3-chloro-4-(propylamino)-1H-pyrrolo[2,3-b]pyridin-6-yl)amino)-2,3-dihydrobenzo[b] [1,4]dioxin-5-yl)(morpholino) methanone]"
6.00 to 6.52,6.00 to 6.52,6.00 to 6.52,"CC(C)Nc1cc(Nc2ccc(C(=O)N3CCOCC3)c3c2OCCO3)nc2[nH]cc(Cl)c12 [Example 59, (8-((3-chloro-4-(isopropylamino)-1H-pyrrolo[2,3-b]pyridin-6-yl)amino)-2,3-dihydrobenzo [b] [1,4]dioxin-5-yl)(morpholino) methanone]"
6.00 to 6.52,6.00 to 6.52,> 7.00,"O=C(c1ccc(Nc2cc(NC3CC3)c3c(Cl)c[nH]c3n2)c2c1OCCO2)N1CCOCC1 [Example 60, (8-((3-chloro-4-(cyclopropylamino)-1H-pyrrolo[2,3-b]pyridin-6-yl)amino)-2,3-dihydrobenzo [b] [1,4]dioxin-5-yl)(morpholino) methanone]"
6.00 to 6.52,6.00 to 6.52,> 7.00,"CS(=O)(=O)CCNc1cc(Nc2ccc(C(=O)N3CCOCC3)c3c2OCCO3)nc2[nH]cc(Cl)c12 [Example 63, (8-((3-chloro-4-((2-(methylsulfonyl)ethyl)amino)-1H-pyrrolo[2,3-b]pyridin-6-yl)amino)-2,3-dihydrobenzo[b] [1,4]dioxin-5-yl)(morpholino) methanone]"
6.00 to 6.52,6.00 to 6.52,6.00 to 6.52,"CCCNc1cc(Nc2ccc(S(=O)(=O)N3CCOCC3)cc2OC)nc2[nH]cc(Cl)c12 [Example 66, 3-chloro-N^6-(2-methoxy-4-(morpholinosulfonyl)phenyl)-N^4-propyl-1H-pyrrolo[2,3-b]pyridine-4,6-diamine]"
6.00 to 6.52,6.00 to 6.52,6.00 to 6.52,"COc1cc(S(=O)(=O)N2CCOCC2)ccc1Nc1cc(NC(C)C)c2c(Cl)c[nH]c2n1 [Example 67, 3-chloro-N^4-isopropyl-N^6-(2-methoxy-4-(morpholinosulfonyl)phenyl)-1H-pyrrolo[2,3-b]pyridine-4,6-diamine]"
6.00 to 6.52,6.00 to 6.52,6.00 to 6.52,"COc1cc(S(=O)(=O)N2CCOCC2)ccc1Nc1cc(NC2CC2)c2c(Cl)c[nH]c2n1 [Example 68, 3-chloro-N^4-cyclopropyl-N^6-(2-methoxy-4-(morpholinosulfonyl)phenyl)-1H-pyrrolo[2,3-b]pyridine-4,6-diamine]"
6.00 to 6.52,6.00 to 6.52,6.00 to 6.52,"COc1cc(S(=O)(=O)N2CCOCC2)ccc1Nc1cc(NCCS(C)(=O)=O)c2c(Cl)c[nH]c2n1 [Example 72, 3-chloro-N^6-(2-methoxy-4-(morpholinosulfonyl)phenyl)-N^4-(2-(methylsulfonyl)ethyl)-1H-pyrrolo[2,3-b]pyridine-4,6-diamine]"
6.00 to 6.52,6.00 to 6.52,> 7.00,"CNc1cc(Nc2ccc(S(=O)(=O)N3CCC(N4CCOCC4)CC3)cc2OC)nc2[nH]cc(Cl)c12 [Example 73, 3-chloro-N^6-(2-methoxy-4-((morpholinopiperidin-1-yl)sulfonyl)phenyl)-N^4-methyl-1H-pyrrolo[2,3-b]pyridine-4,6-diamine]"
6.00 to 6.52,6.00 to 6.52,6.52 to 7.00,"CCNc1cc(Nc2ccc(S(=O)(=O)N3CCC(N4CCOCC4)CC3)cc2OC)nc2[nH]cc(Cl)c12 [Example 74, 3-chloro-N^4-ethyl-N^6-(2-methoxy-4-((morpholinopiperidin-1-yl)sulfonyl)phenyl)-1H-pyrrolo[2,3-b]pyridine-4,6-diamine]"
6.00 to 6.52,6.00 to 6.52,> 7.00,"COc1cc(S(=O)(=O)N2CCC(N3CCOCC3)CC2)ccc1Nc1cc(NC(C)C)c2c(Cl)c[nH]c2n1 [Example 75, 3-chloro-N^4-isopropyl-N^6-(2-methoxy-4-((morpholinopiperidin-1-yl)sulfonyl)phenyl)-1H-pyrrolo[2,3-b]pyridine-4,6-diamine]"
6.00 to 6.52,6.00 to 6.52,> 7.00,"COc1cc(S(=O)(=O)N2CCC(N3CCOCC3)CC2)ccc1Nc1cc(NC2CC2)c2c(Cl)c[nH]c2n1 [Example 76, 3-chloro-N^4-cyclopropyl-N^6-(2-methoxy-4-((morpholinopiperidin-1-yl)sulfonyl)phenyl)-1H-pyrrolo[2,3-b]pyridine-4,6-diamine]"
